Source: PMC6718442, “11β-Hydroxysteroid dehydrogenases control access of 7β,27-dihydroxycholesterol to retinoid-related orphan receptor γ” (Journal of Lipid Research, 2019)

Target: T1, mineralocorticoid receptor (MR) (Homo sapiens, UniProt P80365)
T1 sequence (P80365 1-405): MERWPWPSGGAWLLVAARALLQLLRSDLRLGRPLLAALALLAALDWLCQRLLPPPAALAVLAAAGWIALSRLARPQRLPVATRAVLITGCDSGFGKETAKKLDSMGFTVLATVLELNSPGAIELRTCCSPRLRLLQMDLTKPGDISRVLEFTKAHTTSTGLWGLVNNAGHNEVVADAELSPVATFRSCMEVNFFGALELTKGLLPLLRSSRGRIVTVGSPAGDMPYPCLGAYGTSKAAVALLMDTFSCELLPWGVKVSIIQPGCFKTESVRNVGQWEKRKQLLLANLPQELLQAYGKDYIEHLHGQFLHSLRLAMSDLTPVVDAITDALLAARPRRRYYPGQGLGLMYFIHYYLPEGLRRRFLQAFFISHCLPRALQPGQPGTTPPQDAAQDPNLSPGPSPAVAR
T1 sequence (P08235 1-984 partner): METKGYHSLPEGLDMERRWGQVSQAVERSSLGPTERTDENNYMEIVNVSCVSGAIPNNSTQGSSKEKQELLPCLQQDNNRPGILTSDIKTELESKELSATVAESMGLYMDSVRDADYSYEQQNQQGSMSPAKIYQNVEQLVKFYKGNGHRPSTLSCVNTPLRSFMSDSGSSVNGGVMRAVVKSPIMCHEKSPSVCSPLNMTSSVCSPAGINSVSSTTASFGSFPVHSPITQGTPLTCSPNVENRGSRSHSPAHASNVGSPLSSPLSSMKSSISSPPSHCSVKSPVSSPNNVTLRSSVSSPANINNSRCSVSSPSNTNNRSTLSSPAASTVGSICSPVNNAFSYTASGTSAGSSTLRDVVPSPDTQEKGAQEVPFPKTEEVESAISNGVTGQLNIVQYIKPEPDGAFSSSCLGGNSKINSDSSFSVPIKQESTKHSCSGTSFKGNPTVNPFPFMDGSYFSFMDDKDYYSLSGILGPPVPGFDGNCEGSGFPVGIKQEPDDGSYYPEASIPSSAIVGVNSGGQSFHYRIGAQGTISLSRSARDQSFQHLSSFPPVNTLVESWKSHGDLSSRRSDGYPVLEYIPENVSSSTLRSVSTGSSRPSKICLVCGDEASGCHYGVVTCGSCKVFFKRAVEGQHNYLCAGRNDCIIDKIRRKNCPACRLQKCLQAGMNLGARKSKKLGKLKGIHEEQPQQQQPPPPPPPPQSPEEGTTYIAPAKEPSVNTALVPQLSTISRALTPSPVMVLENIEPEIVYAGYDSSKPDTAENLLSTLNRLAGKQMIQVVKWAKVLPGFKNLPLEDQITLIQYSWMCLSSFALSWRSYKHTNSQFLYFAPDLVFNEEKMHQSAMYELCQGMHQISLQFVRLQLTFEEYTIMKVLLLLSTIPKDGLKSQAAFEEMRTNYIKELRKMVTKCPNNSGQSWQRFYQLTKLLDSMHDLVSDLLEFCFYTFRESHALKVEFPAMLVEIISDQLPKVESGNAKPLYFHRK
Assay: Mineralocorticoid receptor reporter gene assay in HEK-293 cells stably expressing 11β-HSD2
Format: cell-based
Conditions: without cortisol, data not shown
Description: Then, the cells were transiently transfected with the mineralocorticoid receptor (MR) (300 ng/well), a [NT] luciferase reporter (450 ng/well), and a pCMV-lacZ β-galactosidase transfection control (25 ng/well) using the calcium phosphate precipitation method. At 6 h post-transfection, the cells were washed with DMEM and incubated for another 18 h before replacing the medium with cDMEM. The cells were cultured for another 2 h at 37°C. […] The cells were lysed with Tropix lysis solution (Applied Biosystems, Foster City, CA) containing 0.5 mM of dithiothreitol and frozen at -80°C for at least 20 min.

| SMILES | Stimulation of MR activity by the substance itself (in words) |
| --- | --- |
| CC(CO)CCC[C@@H](C)[C@H]1CC[C@H]2[C@@H]3C(=O)C=C4C[C@@H](O)CC[C@]4(C)[C@H]3CC[C@]12C (some centres unmarked) [7k27OHC, 7-keto,27-hydroxycholesterol] | neither 7β27OHC nor 7k27OHC was able to stimulate MR activity by itself |
| CC(CO)CCC[C@@H](C)[C@H]1CC[C@H]2[C@@H]3[C@@H](O)C=C4C[C@@H](O)CC[C@]4(C)[C@H]3CC[C@]12C (stereo partly drawn) [7β27OHC, 7β,27-dihydroxycholesterol] | neither 7β27OHC nor 7k27OHC was able to stimulate MR activity by itself |
